Results taken from patent US20020128231A1 (priority 2000, published 2002).

Columns and labels:
[1] = target: P-glycoprotein (Homo sapiens, UniProt P08183); assay: Rhodamine 123 transport assay across HCT-8 cell monolayers; conditions: for inhibition at 10 μM: human, HCT-8 cell monolayers in Transwell dishes, probe Rhodamine 123 (15 μM)
Method: The human ileocecal adenocarcinoma cell line HCT-8 was grown in RPMI-1640 medium supplemented with 10% horse serum, 1 mM sodium pyruvate and 0.01 mg/ml gentamicin. All cells were maintained in a humidified atmosphere with 5% CO2 at 37° C.
Rhodamine 123 transport was examined as previously described (Hunter J. et al., Simmons, Br. J. Cancer, 64: 437444 (1991); Kim A. E. et al., J. Pharm. Exp. Ther., 286: 1439-1445 (1998)) using HCT-8 cells. Particularly, cells were grown in 6 well Corning Transwell dishes until a tight monolayer was formed. Rh123 was added at a final concentration of 15 μM to the basal or apical compartments and 200 μl samples were taken at the indicated times from the opposite chamber. Fluorescence of Rh123 in the media samples was measured using a fluorescence plate reader with an excitation wavelength of 485 nm and an emission wavelength of 530 nm.

[2] = test system: MDR1-expressing NIH 3T3 cells; assay: Cytotoxicity (MTT) assay: modulation of drug cytotoxicity in multidrug resistant cells; conditions: compound 5 μM; 50 nM doxorubicin; 72 hours; MTT
Method: Cytotoxicity assays were performed with many of the compounds of Formula I to verify their usefulness as inhibitors of P-gp.
Parental NIH3T3 Swiss mouse embryo cell line was obtained from American Type Culture Collection and was grown in Dulbecco's Modified Eagles Medium supplemented with 4.5 g/L glucose, 10% fetal bovine serum, 2 mM L-glutamine, and 0.01 mg/ml gentamicin. […] All cells were maintained in a humidified atmosphere with 5% CO2 at 37° C.
Parental and MDR1-expressing NIH 3T3 cells were plated at a density of 2.5-3.0×10^3 cells/well in 96-well microtiter plates and were exposed to 50 nM of doxoriubicin, 7.5 nM vinblastine, 75 nM colchicine or 300 nM paclitaxel for 72 hours. Cell viability was determined with the colorimetric MTT (3-(4,5-dimethylthiazol-2-yl)-2,5-diphenyl tetrazolium) assay as previously described (Mosmann T., J. Immunol. Methods, 65: 55-63 (1983); Hansen M. B. et al., J. Immunol. Methods, 119: 203-210 (1989)) and the absorbance was measured at 570 nm.

[3] = % Inhibition of R123 Transport, compound 10 μM, Rh123 15 μM, HCT-8 cells
[4] = compound 10 μM, Rh123 15 μM, HCT-8 cells

P-glycoprotein, sequence (P08183 whole entry): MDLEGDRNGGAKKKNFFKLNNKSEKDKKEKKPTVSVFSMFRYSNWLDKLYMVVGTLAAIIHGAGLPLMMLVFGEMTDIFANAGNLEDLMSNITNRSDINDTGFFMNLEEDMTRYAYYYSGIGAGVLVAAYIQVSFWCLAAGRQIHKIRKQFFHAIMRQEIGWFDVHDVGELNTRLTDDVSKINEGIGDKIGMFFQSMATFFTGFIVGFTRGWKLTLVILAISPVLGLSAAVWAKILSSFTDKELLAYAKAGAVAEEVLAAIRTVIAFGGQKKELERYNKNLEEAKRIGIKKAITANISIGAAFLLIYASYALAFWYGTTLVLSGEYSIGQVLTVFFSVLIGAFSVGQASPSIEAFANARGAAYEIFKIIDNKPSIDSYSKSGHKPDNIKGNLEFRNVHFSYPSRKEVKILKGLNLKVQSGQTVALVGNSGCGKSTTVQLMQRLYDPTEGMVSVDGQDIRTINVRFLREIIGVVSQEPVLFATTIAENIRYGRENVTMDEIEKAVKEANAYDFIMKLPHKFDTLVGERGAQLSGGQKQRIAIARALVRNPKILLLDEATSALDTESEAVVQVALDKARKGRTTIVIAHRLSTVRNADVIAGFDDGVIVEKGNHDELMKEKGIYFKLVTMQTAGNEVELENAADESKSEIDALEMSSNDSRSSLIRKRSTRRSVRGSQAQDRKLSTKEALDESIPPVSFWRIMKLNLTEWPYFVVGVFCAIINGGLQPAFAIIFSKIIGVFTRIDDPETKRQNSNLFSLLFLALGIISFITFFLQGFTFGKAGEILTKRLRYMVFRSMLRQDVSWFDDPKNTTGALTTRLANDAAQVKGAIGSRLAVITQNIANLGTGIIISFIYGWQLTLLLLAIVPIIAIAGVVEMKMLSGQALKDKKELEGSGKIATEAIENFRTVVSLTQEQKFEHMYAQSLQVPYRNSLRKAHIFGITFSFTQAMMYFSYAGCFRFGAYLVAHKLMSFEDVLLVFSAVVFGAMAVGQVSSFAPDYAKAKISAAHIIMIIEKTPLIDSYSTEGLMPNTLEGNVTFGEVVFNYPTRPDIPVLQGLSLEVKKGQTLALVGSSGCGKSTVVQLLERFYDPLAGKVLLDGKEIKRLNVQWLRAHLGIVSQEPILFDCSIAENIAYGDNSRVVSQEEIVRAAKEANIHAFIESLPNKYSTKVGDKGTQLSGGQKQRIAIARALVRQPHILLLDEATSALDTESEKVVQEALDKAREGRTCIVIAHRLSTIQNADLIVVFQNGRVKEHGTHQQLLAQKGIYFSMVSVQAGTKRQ

Molecule | inhibition at 10 μM [1, 3] [%] | % Inhibition of R123 Transport [1, 4] [%] | Modulation of Drug Resistance (percentage increase in doxorubicin cytotoxicity in the presence of the compounds versus in their absence) [2] [%] | inhibition at 10 μM [1] [%]
2-{3-(3,4-dimethoxyphenyl)-5,6-dimethoxy-2-[4-(4-nitrophenyl)-piperazin-1-carbonyl]-indan-1-yl}-1-[4-(4-nitrophenyl)-1-yl]-ethanone [AV-196] | – | 64.4 | 41.47 | –
CCCCOc1ccc(C2c3cc(OCCCC)c(OCCCC)cc3C(CC(=O)N3CCN(c4ccccc4OCC)CC3)C2C(=O)N2CCN(c3ccccc3OCC)CC2)cc1OCCCC (stereo not drawn) [AV-255, 2-{3-(3,4-Dibutoxy-phenyl)-2-[4-(2-ethoxy-phenyl)-piperazine-1-carbonyl]-5,6-dibutoxy-indan-1-yl}-1-[4-(2-ethoxy-phenyl)-piperazin-1-yl]-ethanone] | 96 | – | 6.7 | –
COc1ccc(C2c3cc(OC)c(OC)cc3C(CCO[Si](c3ccccc3)(c3ccccc3)C(C)(C)C)C2CO)cc1OC (stereo not drawn) [AV-175, [1-[2-t-butyldiphenyl-silanoxy)-ethyl-3-(3,4-dimethoxyphenyl)-5,6-dimethoxy-indan-2-yl]-methanol] | – | 71.3 | 52.50 | –
COc1ccc(C2c3cc(OC)c(OC)cc3C(CC(=O)N3CCN(C(=O)OCc4ccccc4)CC3)C2C(=O)N2CCN(C(=O)OCc3ccccc3)CC2)cc1OC (stereo not drawn) [AV-179, 4-{2-[3-(3,4-dimethoxyphenyl)-5,6-dimethoxy-2-(piperazine-1-carboxylic acid benzyl ester)-indan-1-yl]-acetyl}-piperazine-1-carboxylic acid benzyl ester] | – | 87.7 | 58.07 | –
CCCCN(CCCC)C(=O)CC1c2cc(OC)c(OC)cc2C(c2ccc(OC)c(OC)c2)C1C(=O)N(CCCC)CCCC (stereo not drawn) [AV-190, 1-(3,4-dimethoxyphenyl)-3-dibutylcarbamoylmethyl-5,6-dimethoxy-indan-2-carboxylic acid dibutyl amide] | 52.2 | – | 65.35 | –
CCN(CC)C(=O)CC1c2cc(OC)c(OC)cc2C(c2ccc(OC)c(OC)c2)C1C(=O)N(CC)CC (stereo not drawn) [AV-182, 1-(3,4-dimethoxyphenyl)-3-diethylcarbamoylmethyl-5,6-dimethoxy-indan-2-carboxylic acid diethyl amide] | 25 | – | 23.87 | –
CCCN(CCC)C(=O)CC1c2cc(OC)c(OC)cc2C(c2ccc(OC)c(OC)c2)C1C(=O)N(CCC)CCC (stereo not drawn) [AV-189, 1-(3,4-dimethoxyphenyl)-3-dipropylcarbamoylmethyl-5,6-dimethoxy-indan-2-carboxylic acid dipropyl amide] | 60 | – | 64.78 | –
CCOc1ccccc1N1CCN(C(=O)CC2c3cc(OC)c(OC)cc3C(c3ccc(OC)c(OC)c3)C2C(=O)N2CCN(c3ccccc3OCC)CC2)CC1 (stereo not drawn) [AV-171, 2-{3-(3,4-dimethoxyphenyl)-5,6-dimethoxy-2-[4-(2-ethoxyphenyl)-piperazin-1-carbonyl]-indan-1-yl}-1-[4-(2-ethoxyphenyl)-1-yl]-ethanone] | – | 92.9 | 66.11 | –
COCC1C(CCOS(C)(=O)=O)c2cc(OC)c(OC)cc2C1c1ccc(OC)c(OC)c1 (stereo not drawn) [AV-177, methanesulfonic acid 2-[3-(3,4-dimethoxyphenyl)-5,6-dimethoxy-2-methoxymethyl-indan-1-yl] ethyl ester] | – | 9.4 | 40.32 | –
COc1ccc(C2c3cc(OC)c(OC)cc3C(CC(=O)N3CCN(CC=Cc4ccccc4)CC3)C2C(=O)N2CCN(CC=Cc3ccccc3)CC2)cc1OC (stereo not drawn) [AV-172, 2-{3-(3,4-dimethoxyphenyl)-5,6-dimethoxy-2-[4-(3-phenylallyl)-piperazine-1-carbonyl]-indan-1-yl}-1-[4-(3-phenylallyl)piperazine-1-yl]-ethanone] | 86.7 | – | 68.57 | –
COCC1C(CCN2CCC(Cc3ccccc3)CC2)c2cc(OC)c(OC)cc2C1c1ccc(OC)c(OC)c1 (stereo not drawn) | – | – | 73.65 | 88.9
COc1ccc(C2c3cc(OC)c(OC)cc3C(CC(=O)N(C)C)C2C(=O)N(C)C)cc1OC (stereo not drawn) [AV-181, 1-(3,4-dimethoxyphenyl)-3-dimethylcarbamoylmethyl-5,6-dimethoxy-indan-2-carboxylic acid dimethyl amide] | 6 | – | 6.13 | –
COCC1C(CCN2CCN(Cc3ccccc3)CC2)c2cc(OC)c(OC)cc2C1c1ccc(OC)c(OC)c1 (stereo not drawn) [AV-178, 1-benzyl-4-{2-[3-(3,4-dimethoxyphenyl)-5,6-dimethoxy-2-methoxymethyl-indan-1-yl]-ethyl}-piperazine] | 79 | – | 54.50 | –
COc1cc(C2c3cc(O)c(OC)cc3C(CC(=O)N3CCC(Cc4ccccc4)CC3)C2C(=O)N2CCC(Cc3ccccc3)CC2)ccc1O (single isomer, unassigned) [AV-251-1] | – | 79.26 | −6.9 | –

Now from value to molecule, other results behind:

inhibition at 10 μM [1, 3] [%] | % Inhibition of R123 Transport [1, 4] [%] | Molecule | Modulation of Drug Resistance (percentage increase in doxorubicin cytotoxicity in the presence of the compounds versus in their absence) [2] [%] | inhibition at 10 μM [1] [%]
64.2 | – | CCCCCOc1ccc(C2c3cc(OCCCCC)c(OC)cc3C(CC(=O)N3CCN(c4ccccc4OCC)CC3)C2C(=O)N2CCN(c3ccccc3OCC)CC2)cc1OC (stereo not drawn) [AV-252, 2-[2-[4-(2-Ethoxy-phenyl)-piperazine-1-carbonyl]-6-methoxy-3-(3-methoxy-4-pentyloxy-phenyl)-5-pentyloxy-indan-1-yl]-1-[4-(2-ethoxy-phenyl)-piperazin-1-yl]ethanone] | −0.5 | –
– | 91.38 | CCCOc1ccc(C2c3cc(OCCC)c(OC)cc3C(CC(=O)N3CCN(c4ccccc4OCC)CC3)C2C(=O)N2CCN(c3ccccc3OCC)CC2)cc1OC (single isomer, unassigned) [AV-239-2] | 60 | –
– | 77.9 | COCC1C(CCN2CCN(c3ccc(C(C)=O)cc3)CC2)c2cc(OC)c(OC)cc2C1c1ccc(OC)c(OC)c1 (stereo not drawn) [AV-203] | 84.65 | –
88.2 | – | CCOc1ccccc1N1CCN(C(=O)CC2c3cc(OC)c(O)cc3C(c3ccc(O)c(OC)c3)C2C(=O)N2CCN(c3ccccc3OCC)CC2)CC1 (stereo not drawn) [AV-206, 2-[2-[4-(2-ethoxyphenyl)-piperazine-1-carbonyl]-5-hydroxy-3-(4-hydroxy-3-methoxyphenyl)-6-methoxy-indan-1-yl]-1-[4(2-ethoxyphenyl)-piperazin-1-yl]-ethanone] | 54.78 | –
83.8 | – | COCC1C(CCN2CCN(c3ccc(F)cc3)CC2)c2cc(OC)c(OC)cc2C1c1ccc(OC)c(OC)c1 (stereo not drawn) [AV-201, 1-{-2-[3-(3,4-dimethoxyphenyl)-5,6-dimethoxy-2-methoxymethyl-indan-1-yl]-ethyl}-4-(4-fluorophenyl)-piperazine] | 66.44 | –
84 | – | COCC1C(CCN2CCN(c3ccc(OC)cc3)CC2)c2cc(OC)c(OC)cc2C1c1ccc(OC)c(OC)c1 (stereo not drawn) [AV-199, 1-{-2-[3-(3,4-dimethoxyphenyl)-5,6-dimethoxy-2-methoxymethyl-indan-1-yl]-ethyl}-4-(4-methoxyphenyl)-piperazine] | 61.63 | –
– | 83.47 | CCCc1ccc(C(=O)NCCC2c3cc(OC)c(OC)cc3C(c3ccc(OC)c(OC)c3)C2CNC(=O)c2ccc(CCC)cc2)cc1 (stereo not drawn) [AV-262] | 18.0 | –
69.9 | – | CCOc1ccccc1N1CCN(C(=O)CC2c3cc4c(cc3C(c3ccc5c(c3)OCO5)C2C(=O)N2CCN(c3ccccc3OCC)CC2)OCO4)CC1 (single isomer, unassigned) [AV-258-1, 2-{7-benzo[1,3]dioxol-5-yl-6-[4-(2-ethoxy-phenyl)-piperazin-1-carbonyl]-6,7-dihydro-5H-indeno[5,6-d][1,3]dioxol-5-yl}-1-[4-(2-ethoxy-phenyl)-piperazin-1-yl]-ethanone] | 7.9 | –
53.6 | – | CCOc1ccccc1N1CCN(C(=O)CC2c3cc(OC)c(OCc4ccccc4)cc3C(c3ccc(OCc4ccccc4)c(OC)c3)C2C(=O)N2CCN(c3ccccc3OCC)CC2)CC1 (stereo not drawn) [AV-205, 2-{5-benzyloxy-3-(4-benzyloxy-3-methoxyphenyl)-2-{4-(2-ethoxyphenyl)-piperazine-1-carbonyl}-6-methoxy-indan-1-yl}-1-{4-(2-ethoxyphenyl)-piperazin-1-yl]-ethanone] | 35.56 | –
– | 73.84 | COc1ccc(C2c3cc(OC)c(OC)cc3C(CCNC(=O)c3ccc(OC(F)(F)F)cc3)C2CNC(=O)c2ccc(OC(F)(F)F)cc2)cc1OC (stereo not drawn) [AV-260] | 2.1 | –
